{"source": "patent US20250214977A1", "about": "“STAT6 INHIBITORS AND USES THEREOF” (Kymera Therapeutics, Inc., priority 2024, published 2025)", "data": [{"tested_on": "Phosphorylation of STAT6 in human A549 cells", "experiment": "Phosphorylated STAT6 (pSTAT6) flow cytometry assay in human A549 cells", "format": "cell-based", "settings": "read-out: STAT6 IL4 pSTAT6 assay in A549 cells: Average IC50", "source_text": "Example 3. Phosphorylated STAT6 (pSTAT6) Flow Cytometry Assay in Human A549 Cells\nPhosphorylation of STAT6 in human A549 cells was quantitatively measured using flow cytometry technology.", "units": {"IC50": "µM"}, "values": [{"smiles": "CCc1ccncc1-c1cc(C2=CCCN(C(=O)CCn3ccnn3)C2)c(F)c2[nH]c(C(=O)N3CCN(C4CC4)CC3)cc12", "note": "[Example I-473]", "IC50": "< 0.1"}, {"smiles": "COc1ccncc1-c1cc(C2=CCCN(C(=O)CCn3ccnn3)C2)c(F)c2[nH]c(C(=O)N3CCN(c4ccc(C#N)cc4OC)CC3)cc12", "note": "[Example I-474]", "IC50": "< 0.1"}, {"smiles": "CCc1ccncc1-c1cc(C2=CCCN(C(=O)CCn3ccnn3)C2)c(F)c2[nH]c(C(=O)N3CCN(c4ncc(F)cc4OC)CC3)cc12", "note": "[Example I-476]", "IC50": "< 0.1"}, {"smiles": "O=C(CCn1ccnn1)N1CCC=C(c2cc(-c3ccccc3OC3CC3)c3cc(C(=O)N4CCN(c5ncccc5OC5CC5)CC4)[nH]c3c2F)C1", "note": "[Example I-477]", "IC50": "< 0.1"}, {"smiles": "CCOc1ccncc1-c1cc(C2=CCCN(C(=O)CCn3ccnn3)C2)c(F)c2[nH]c(C(=O)N3CCN(c4nccnc4OC)CC3)cc12", "note": "[Example I-478]", "IC50": "< 0.1"}, {"smiles": "CCc1ccncc1-c1cc(C2=CCCN(C(=O)CCn3ccnn3)C2)c(F)c2[nH]c(C(=O)N3CCN(c4ncccc4OC4CC4)CC3)cc12", "note": "[Example I-479]", "IC50": "< 0.1"}, {"smiles": "CCc1ccncc1-c1cc(C2=CCCN(C(=O)CCn3ccnn3)C2)c(F)c2[nH]c(C(=O)N3CCN(c4cccc(OC)n4)CC3)cc12", "note": "[Example I-480]", "IC50": "< 0.1"}, {"smiles": "COc1ccncc1-c1cc(C2=CCCN(C(=O)CCn3ccnn3)C2)c(F)c2[nH]c(C(=O)N3CCN(c4ccc(C5CC5)cc4OC)CC3)cc12", "note": "[Example I-481]", "IC50": "< 0.1"}, {"smiles": "COc1ccncc1-c1cc(C2=CCCN(C(=O)CCn3ccnn3)C2)c(F)c2[nH]c(C(=O)N3CCN(c4ccc(F)cc4OC)CC3)cc12", "note": "[Example I-482]", "IC50": "< 0.1"}, {"smiles": "CCOc1ccncc1-c1cc(C2=CCCN(C(=O)CCn3ccnn3)C2)c(F)c2[nH]c(C(=O)N3CCN(c4ccnnc4OC)CC3)cc12", "note": "[Example I-483]", "IC50": "< 0.1"}, {"smiles": "CCc1cnccc1-c1cc(C2=CCCN(C(=O)CCn3ccnn3)C2)c(F)c2[nH]c(C(=O)N3CCN(c4ncc(OC)cc4OC)CC3)cc12", "note": "[Example I-484]", "IC50": "> 100"}, {"smiles": "COc1ccncc1-c1cc(C2=CCCN(C(=O)CCn3ccnn3)C2)c(F)c2[nH]c(C(=O)N3CCN(c4cc5cc[nH]c5nc4C#N)CC3)cc12", "note": "[Example I-485]", "IC50": "< 0.1"}, {"smiles": "CCOc1ccncc1-c1cc(C2=CCCN(C(=O)CCn3cccn3)C2)c(F)c2[nH]c(C(=O)N3CCN(c4cncnc4OC)CC3)cc12", "note": "[Example I-486]", "IC50": "< 0.1"}, {"smiles": "COc1ccccc1-c1cc(C2=CCCN(C(=O)CCn3ccnn3)C2)c(F)c2[nH]c(C(=O)N3CCN(c4nc(OC(F)F)ccc4OC)CC3)cc12", "note": "[Example I-490]", "IC50": "> 100"}, {"smiles": "COc1ccncc1-c1cc(C2=CCCN(C(=O)CCn3ccnn3)C2)c(F)c2[nH]c(C(=O)N3CCN(c4nc(Cl)ccc4OC)CC3)cc12", "note": "[Example I-491]", "IC50": "> 100"}, {"smiles": "COc1ccncc1-c1cc(C2=CCCN(C(=O)CCn3ccnn3)C2)c(F)c2[nH]c(C(=O)N3CCN(c4ccc(F)c(OC)c4F)CC3)cc12", "note": "[Example I-492]", "IC50": "> 100"}, {"smiles": "COc1ccncc1-c1cc(C2=CCCN(C(=O)CCn3ccnn3)C2)c(F)c2[nH]c(C(=O)N3CCN(c4cccnc4C#N)CC3)cc12", "note": "[Example I-493]", "IC50": "> 100"}, {"smiles": "COc1ccccc1-c1cc(C2=CCCN(C(=O)CCn3cccn3)C2)c(F)c2[nH]c(C(=O)N3CCN(c4cc5cc[nH]c5nc4C#N)CC3)cc12", "note": "[Example I-494]", "IC50": "> 100"}, {"smiles": "COc1ccccc1-c1cc(C2=CCCN(C(=O)CCn3ccnn3)C2)c(F)c2[nH]c(C(=O)N3CCN(c4ncccc4C4CC4)CC3)cc12", "note": "[Example I-495]", "IC50": "> 100"}, {"smiles": "COc1ccncc1-c1cc(C2=CCCN(C(=O)CCn3ccnn3)C2)c(F)c2[nH]c(C(=O)N3Cc4cnn(C)c4C3)cc12", "note": "[Example I-496]", "IC50": "> 100"}, {"smiles": "COc1ccncc1-c1cc(C2=CCCN(C(=O)CCc3nccs3)C2)c(F)c2[nH]c(C(=O)N3CCN(c4ncccc4OC)CC3)cc12", "note": "[Example I-497]", "IC50": "10 to 100"}, {"smiles": "COc1cc(F)cnc1N1CCN(C(=O)c2cc3c(Cl)cc(C4=CCCN(C(=O)CCn5ccnn5)C4)c(F)c3[nH]2)CC1", "note": "[Example I-499]", "IC50": "10 to 100"}, {"smiles": "COc1ccncc1-c1cc(C2=CCCN(C(=O)CCn3ccnn3)C2)c(F)c2[nH]c(C(=O)N3CCN(c4nc(C)c(F)cc4OC)CC3)cc12", "note": "[Example I-500]", "IC50": "> 100"}]}]}
